Assays:
[1] = target: T1, FR-β positive human peripheral blood monocytes (Homo sapiens, UniProt P14207); assay: Flow cytometry analysis of human peripheral blood monocytes; format: cell-based; conditions: 100 nM, 1 h at 37° C
T1 construct: Human peripheral blood monocytes were isolated from whole human blood by a known procedures; from tissue; host or cells: human peripheral blood mononuclear cells from healthy volunteers (CD11b+ monocytes)
Method: Human peripheral blood monocytes were isolated from whole human blood by a known procedures. Briefly, whole human blood in anticoagulant was collected from healthy volunteers following informed consent and the mononuclear cells were separated by Ficoll-Paque centrifugation. Cells were re-suspended in Eppendorf tubes in FDRPMI medium containing either DMTHF-Oregon Green™ 488 (100 nM) or folate-Oregon Green™ 488 (100 nM) plus CD 11b Tricolor to label human monocytes. For competition studies 100-fold molar excess of free folic acid was included in the suspension. After incubation for 1 h at 37° C., the cells were washed 3 times with PBS (0.5 ml) and re-suspended in fresh PBS (0.4 ml). Bound fluorescence was analyzed by flow cytometry as described above.

[2] = target: T2, FR-β positive rat peritoneal macrophages (Rattus norvegicus, UniProt D4A4S5); assay: Flow cytometry analysis of dye conjugate binding to rat peritoneal macrophages; format: cell-based; conditions: 100 nM, 1 h at 37° C
T2 construct: from tissue; host or cells: CD11b+ peritoneal macrophages from Lewis rats
Method: (§1) KB cells were allowed to form monolayers in a T75 falcon flask for 48 hours in folate-deficient RPMI 1640 culture medium (FDRPMI). The confluent cells were trypsinized and 1×10^6 cells were transferred into each Eppendorf tube and centrifuged. Spent medium was removed and the pelleted cells were resuspended in fresh medium containing either DMTHF-DyLight™ 680 conjugate (100 nM) or folate-DyLight™ 680 conjugate (100 nM), either in the presence or absence of 100-fold molar excess of free folic acid. After incubation for 1 h at 37° C., the cells were washed 3 times with PBS (0.5 ml) and re-suspended in fresh PBS (0.4 ml). Bound fluorescence was analyzed using a flow cytometer (Cytomics F500; Beckman Coulter).
For similar analysis of rat peritoneal macrophages, experimental adjuvant-induced arthritis was induced in Lewis rats according to a previously reported procedure. After 25 days of arthritis induction, the rats were sacrificed by CO2 asphyxiation and peritoneal macrophages were harvested by injecting 60 mL PBS into the peritoneal cavity, and after brief massage of the abdomen, removing the cells using the injection syringe. Peritoneal cells were transferred to Eppendorf tubes, washed and stained as described above, except CD11b+ macrophages that were identified by co-staining with anti-CD 11b-PE (phycoerythrin-labeled antibody to CD11b).

FR-α positive KB cells [3] = target: T3, FR-α positive KB cells (Homo sapiens, UniProt P15328); assay: Flow cytometry analysis of dye conjugate binding to KB cells; format: cell-based; conditions: 100 nM, 1 h at 37° C
T3 construct: KB cells, a human nasopharyngeal cancer cell line known to over-express FR-α; host or cells: KB cells
Method: as §1

RAW 264.7 cells = assay: In vitro cytotoxicity assay ([^3H]-thymidine incorporation) in RAW 264.7 cells; format: cell-based; conditions: murine macrophage cell line
Method: (§2) KB, RAW or IGROV cells were seeded in 24-well (100,000 cells/well) Falcon plates and allowed to form monolayers overnight. Spent medium was then replaced with fresh medium (0.5 mL) containing increasing concentrations of drug conjugate in the presence or absence of excess folic acid, and cells were incubated for an additional 2 h at 37° C. Cells were washed 3× with fresh medium (0.5 mL) and incubated in fresh medium (0.5 mL) for another 66 h at 37° C. Spent medium in each well was replaced with fresh medium (0.5 mL) containing [^3H]-thymidine ([…]) and the cells were incubated for additional 4 h at 37° C. to allow [^3H]-thymidine incorporation. Cells were then rinsed with medium (3×0.5 mL) and treated with 5% trichloroacetic acid (0.5 mL) for 10 min at room temperature. After replacing trichloroacetic acid with 0.25 N NaOH (0.5 mL), cells were transferred to individual scintillation vials containing Ecolume scintillation cocktail (3.0 mL) and counted in a liquid scintillation counter. IC50 values were calculated by plotting %[^3H]-thymidine incorporation versus log concentration of DMTHF-EC-119-drug conjugate in GraphPad Prism 4.

IGROV cells = assay: In vitro cytotoxicity assay ([^3H]-thymidine incorporation) in IGROV cells; format: cell-based, human
Method: as §2

KB cells = assay: In vitro cytotoxicity assay ([^3H]-thymidine incorporation) in KB cells; format: cell-based, human; conditions: for IC50: 2 h pulse, additional 66 h incubation
Method: The in vitro toxicity of DMTHF-EC-119-TubH, compound 6a, (See FIG. 15) was analyzed in KB cells which were pulsed for 2 h with increasing concentrations of DMTHF-EC-119-TubH in the presence or absence of 100 μM folic acid. After washing to remove unbound conjugate, cells were incubated for an additional 66 h in fresh medium before addition of tritiated thymidine.
as §2

FR-α positive KB cells [4] = target: T3, FR-α positive KB cells; assay: Binding affinity of ^99mTc conjugates for KB cells (gamma counting)
Method: For evaluation of its affinity for FR-α, increasing concentrations of ^99mTc-DMTHF-chelate were incubated with KB cells, a human nasopharyngeal cancer cell line known to over-express FR-α. The level of bound radioactivity was analyzed using a gamma counter.
KB or CHO-β cells (100,000 cells/well in 500 μl) were plated into 24 well Falcon plates and allowed to form adherent monolayers (ca. 70% confluent) overnight. […] Cells were washed with PBS (3×1.0 mL), after which 0.25 M aqueous NaOH (0.5 ml) was added to dissolve the cells. After 10 minutes incubation, 450 μl from each well were transferred polypropylene tubes and counted for radioactivity in a γ counter (Packard Instrument Company). The binding affinity, Kd, was calculated using GraphPad Prism 4 by plotting cell bound radioactivity versus the concentration of radiotracer added.

xenograft KB tumor = assay: Optical imaging of athymic nude mice bearing KB tumor; format: in vivo, mouse; conditions: athymic nude mice with KB tumor, 4 h after administration
Method: (§3) Radioimages of murine models of human diseases were acquired with a Kodak Imaging Station coupled to a CCD camera operated with Kodak Molecular Imaging Software v 4.0 (Carestream Molecular Imaging). Abdomens were generally shielded with a lead plate in order to mask radioactivity emitted from the kidneys and bladder. The parameters used for radioimaging were: acquisition time=2 min, f-stop=4, focal plane=7, FOV=200, binning=4. For white light imaging, the parameters were: acquisition time=0.05 s, f-stop=11, focal plane=7, FOV=200, with no binning. For fluorescent imaging, abdomens were shielded with black construction paper to block fluorescence emitted from the kidneys and bladder. The parameters used were: acquisition time=30 s, excitation filter of λ=625 nm, emission filter of λ=700 nm, f-stop=4, focal plane=7, FOV=200, and binning=4.
Animals bearing tumors and/or inflammatory diseases were prepared as described above and injected intraperitoneally with DMTHF-DyLight™ 680 or folate-DyLight™ 680 conjugate (4 nmol in 100 μl of PBS). […] To evaluate accumulation of test compounds in specific organs/tissues, animals were dissected and organs/tissues of interest were excised and selected regions of interest were analyzed in the Kodak Imaging Station.

[5] = test system: M109 tumor and DSS induced ulcerative colitis; assay: Optical imaging of Balb/C mice bearing M109 tumor with DSS induced ulcerative colitis; format: in vivo, mouse; conditions: 4 h after administration
Method: as §3
Six week old female Balb/c mice were purchased from Harlan laboratories and maintained on a folate deficient diet (Harlan-Teklad, Wis.). After one week of acclimation, the mice were inoculated subcutaneously on the shoulder with 0.1 mL of M109 tumor cell suspension (1×10^6 cells). Subcutaneous tumor growth was monitored daily and on day 10 post tumor inoculation, 4% dextran sulfate sodium was added to their drinking water for 6 days to induce experimental ulcerative colitis. […]

T3 sequence (P15328 25-234): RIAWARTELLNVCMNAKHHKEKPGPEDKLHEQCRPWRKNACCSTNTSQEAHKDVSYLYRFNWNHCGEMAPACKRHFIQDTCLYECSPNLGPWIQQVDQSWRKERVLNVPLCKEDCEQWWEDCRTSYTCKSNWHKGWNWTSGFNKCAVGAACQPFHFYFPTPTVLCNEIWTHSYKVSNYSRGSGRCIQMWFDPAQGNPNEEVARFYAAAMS
T2 sequence (D4A4S5 21-252): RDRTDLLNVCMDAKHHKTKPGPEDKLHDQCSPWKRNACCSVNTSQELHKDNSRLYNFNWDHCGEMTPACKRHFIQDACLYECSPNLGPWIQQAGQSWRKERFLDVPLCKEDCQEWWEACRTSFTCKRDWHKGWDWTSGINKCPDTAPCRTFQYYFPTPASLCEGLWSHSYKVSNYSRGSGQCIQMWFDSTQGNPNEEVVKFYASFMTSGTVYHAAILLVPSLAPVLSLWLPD
T1 sequence (P14207 17-230): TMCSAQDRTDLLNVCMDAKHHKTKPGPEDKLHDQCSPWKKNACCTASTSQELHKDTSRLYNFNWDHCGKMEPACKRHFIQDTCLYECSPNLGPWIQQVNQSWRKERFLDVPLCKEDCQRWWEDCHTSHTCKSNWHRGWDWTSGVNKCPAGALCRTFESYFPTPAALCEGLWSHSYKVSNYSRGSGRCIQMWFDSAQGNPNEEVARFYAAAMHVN

Compound | shift in the CD11b+ subpopulation of human peripheral blood leucocytes (FR-β) [1] | binding to CD11b+ rat peritoneal macrophages (FR-β) [2] | binding to FR-α+ human KB cells (FR-α positive KB cells [3]) | IC50 (IGROV cells) | IC50 (KB cells) | also measured
CN(CC1CNc2nc(N)[nH]c(=O)c2N1C)c1ccc(C(=O)N[C@@H](CCC(=O)O)C(=O)O)cc1 (stereo partly shown) [DMTHF, N^5,N^10-dimethyl-tetrahydrofolic acid] | lack of affinity | little affinity for FR-β | binds FR-α |  |  | 
CCC1(O)CC2CN(CCc3c([nH]c4ccccc34)[C@](C(=O)OC)(c3cc4c(cc3OC)N(C)[C@@H]3[C@](O)(C(=O)NNC(=O)OCCSSC[C@H](NC(=O)[C@H](CC(=O)O)NC(=O)[C@H](CC(=O)O)NC(=O)[C@H](CCCNC(=N)N)NC(=O)[C@H](CC(=O)O)NC(=O)CC[C@H](NC(=O)c5ccc(N(C)CC6CNc7nc(N)[nH]c(=O)c7N6C)cc5)C(=O)O)C(=O)O)[C@@H](O)[C@@]5(CC)C=CCN6CC[C@@]43[C@H]65)C2)C1 (stereo partly shown) [DMTHF-EC-119-DAVBH, DMTHF-EC-119-desacetylvinblastine hydrazide] |  |  |  | ~1000 nM | 42 nM | cytotoxicity in RAW 264.7 cells (RAW 264.7 cells): did not show any cytotoxicity
CCCC(=O)OCN(C(=O)[C@@H](NC(=O)[C@H]1CCCCN1C)C(C)CC)[C@H](C[C@@H](OC(C)=O)c1nc(C(=O)N[C@@H](Cc2ccc(O)cc2)C[C@H](C)C(=O)NNC(=O)OCCSSC[C@H](NC(=O)[C@H](CC(=O)O)NC(=O)[C@H](CC(=O)O)NC(=O)[C@H](CCCNC(=N)N)NC(=O)[C@H](CC(=O)O)NC(=O)CC[C@H](NC(=O)c2ccc(N(C)CC3CNc4nc(N)[nH]c(=O)c4N3C)cc2)C(=O)O)C(=O)O)cs1)C(C)C (stereo partly shown) [DMTHF-EC-119-TubH, DMTHF-EC-119-tubulysin B hydrazide] |  |  |  | ~120000 nM | 41 nM | effect of excess folic acid on cytotoxicity (KB cells; 100 μM folic acid): inhibited by excess folic acid
Nc1nc2ncc(CNc3ccc(C(=O)N[C@H](CCC(=O)NC[C@H](N)C(=O)N[C@@H](CC(=O)O)C(=O)N[C@@H](CS)C(=O)O)C(=O)O)cc3)nc2c(=O)[nH]1 [EC20, pteroic acid-Glu-DAP-Asp-Cys] |  |  |  |  |  | competition of KB cell binding by free folic acid (FR-α positive KB cells [4]; 100-fold molar excess of free folic acid): competed by excess free folic acid; Kd (FR-α positive KB cells [4]; KB cells, 1 hour at 37° C, cell bound radioactivity, read-out: apparent Kd): 23 nM
N^5,N^10-Dimethyl Tetrahydrofolate-DyLight™ 680 [DMTHF-DyLight™ 680] |  | no measurable affinity | binds avidly |  |  | fluorescent uptake, optical imaging (xenograft KB tumor): tumor selective uptake; fluorescent uptake, ROI analysis of organs/tissues [5]: accumulated mainly in tumors
N^5,N^10-Dimethyl tetrahydrofolate-Oregon Green™ 488 [DMTHF-Oregon Green] | did not |  |  |  |  | 
